# According to patent publication US20190350964A1, “ANTI-CANCER COMPOUNDS AND USES THEREOF” (NATIONAL UNIVERSITY OF SINGAPORE, priority 2016, published 2019):
# Experiments:
# IM95 = assay: MTT cytotoxicity test (GI50); format: cell-based; details: Homo sapiens; IM95, cancer, gastric; MTT 72 h
# U2OS = assay: MTT cytotoxicity test (GI50); format: cell-based; details: Homo sapiens, cancer, others, bone, MTT 72 h
# PIK3IP1 = assay: qRT-PCR of PIK3IP1 mRNA in Ras- or Raf-mutant cancer cell lines; format: cell-based, human; details: 2.5 and 5 μM, 24 h; compared with normal cells
# Description: […] human […] ID NO: 11, [NT] ID NO: 12), human […] ID NO: 13, [NT] ID NO: 14), human […] ID NO: 15, [NT] ID NO: 16) and human PIK3IP1 ([NT] ID NO: 17, [NT] ID NO: 18). The TATA-binding protein (TBP) gene was used for normalization. All PCR reactions were performed in triplicate.
# [1] = biological target: T1, MIP18 family protein FAM96A (Homo sapiens, UniProt Q9H5X1); assay: MS-CETSA in normal BJ cell lysates; format: binding; details: lysate, 100 μM compound
# T1 construct: After collecting data covering >8,000 proteins in lysates of normal BJ cells; endogenous in cells; host or cells: normal BJ cells, lysate
# T1 sequence (Q9H5X1 whole entry): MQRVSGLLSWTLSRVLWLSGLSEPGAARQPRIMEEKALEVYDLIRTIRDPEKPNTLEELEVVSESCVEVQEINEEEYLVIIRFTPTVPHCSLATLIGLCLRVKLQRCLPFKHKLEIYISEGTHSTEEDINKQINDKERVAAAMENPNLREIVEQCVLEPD
# Description: Target identification was performed by cellular thermal shift assay (CETSA) coupled with quantitative mass spectrometry. In brief, normal BJ cells were lysed by combination of freeze/thaw and mechanical shearing with needle in buffer [50 mM HEPES (pH 7.5), 5 mM β-glycerophosphate, 0.1 mM Sodium Vanadate, 10 mM MgCl2, 1 mM TCEP and 1× Protease inhibitor Cocktail]. The cell debris was removed by centrifugation at 20,000 g for 20 min at 4° C. […] Each lysate was divided into 10 aliquots for heat treatment at the respective temperatures for 3 min in a 96-well thermocycler, followed by 3 min at 4° C. The lysate was centrifuged at 20,000 g for 20 min at 4° C. and the supernatant was transferred into microtubes for MS sample preparation.
# After lysis, at least 100 μg of the protein (measured with a BCA assay) was subjected to reduction, denaturation and alkylation. Samples were subsequently incubated with sequencing grade LysC (Wako) and trypsin (Promega) for digestion overnight at 37° C. The digested samples were dried using a centrifugal vacuum evaporator, solubilized in 100 mM TEAB. […]
# Proteins for which a low temperature plateau was not present were deleted using a cut off >0.85 for the average reading of the first three temperature points (in our experience proteins melting already at −37° C. are more prone to give false positives in a shift analysis).
# AZ521 = assay: MTT cytotoxicity test (GI50); format: cell-based; details: Homo sapiens, AZ-521; AZ521, cancer, gastric; MTT 72 h
# normal BJ cells = assay: γ-H2AX immunofluorescence (DNA damage); format: cell-based, human; details: 48 h; a131 2.5 and 5 μM, etoposide 100 μM
# Description: For immunofluorescence analysis, cells grown on coverglass-bottom chamber slides (Lab-Tek) were fixed with 4% PFA (paraformaldehyde) for 15 min at 25° C. The fixed cells were permeabilized with 0.5% Triton X-100 and exposed to TBS containing 0.1% Triton X-100 and 2% BSA (AbDil). The following primary antibodies were diluted in PBS containing 1% BSA and 0.1% Triton X-100: anti-γ-tubulin (Sigma-Aldrich, #T6557; 1:1000) and anti-β-tubulin (Abcam, #ab18207; 1:2000). […] Cells were counterstained with DAPI (Thermo Scientific). […] For time-lapse live-cell analysis, a Stage Top Incubator with Digital CO2 mixer (Tokai) was used, and images were acquired at 37° C.
# PI3K/Akt/mTOR pathway = assay: Immunoblot of phosphorylated Akt and p70S6K; format: cell-based, human; details: normal versus transformed BJ cells, 24 h
# Description: (§1) Total cell lysates were prepared with 1% triton lysis buffer [25 mM Tris HCl (pH 8.0), 150 mM NaCl, 1% triton-X100, 1 mM dithiothreitol (DTT), protease inhibitor mix (Complete Mini, Roche) and phosphatase inhibitor (PhosphoStop, Roche)] and subjected to SDS-PAGE. The following antibodies were used for immunoblotting: anti-β-actin (Sigma-Aldrich), anti-cleaved PARP (Abcam, #ab32064), anti-PI5P4Kα (#5527), anti-PI5P4Kβ (#9694), anti-cleaved caspase-3 (#9664), anti-pHistone H3(Ser10) (#3377), anti-pAkt(S473) (#9271), anti-pAkt(T308) (#13038), anti-total Akt (#9272), anti-p70S6K(T389) (#9234), anti-total p70S6K (#9202), anti-pErk (#4370), anti-γ-Histone H2AX (#9718) (Cell signaling) and anti-PIK3IP1 (Proteintech, #16826-1-AP). The secondary antibodies used were sheep anti-mouse IgG HRP and donkey anti-rabbit IgG HRP (Amersham; 1:2000 dilution). Immunoreactive proteins were visualized using ECL reagent (Amersham). Where indicated, intensities of protein bands were quantified by densitometry (Odyssey V3.0), normalized to their loading controls and then calculated as fold expression change relative to DMSO control.
# [2] = system: normal BJ cells with activated H-RasV12-ER; assay: FACS subG1 in engineered BJ-derived fibroblasts; format: cell-based, human; details: 5 μM, 48 h
# Description: Isogenic BJ human foreskin fibroblast cell lines, including non-transformed (normal) and transformed BJ cells and all gastric cancer cell lines, were kind gifts from Dr. Mathijs Voorhoeve and Dr. Patrick Tan (Duke-NUS), respectively and tested for mycoplasma infection. All other human cancer cell lines used in this study were purchased from ATCC and cultured in accordance with ATCC's instructions. H-RasV12-ER was activated by exposing the BJ-derived fibroblasts to 4-OHT (100 nM, Sigma-Aldrich). Three different sets of siRNAs were used in this study to target PI5P4K isoform DNA sequences as follows:
# Cell death was assessed via Annexin V and/or PI (propidium iodide) staining according to the manufacturer's instructions (eBioscience). Cell growth arrest was assessed by direct measurement of DNA synthesis through incorporation of the nucleoside analog bromodeoxyuridine (BrdU). Briefly, BrdU (30 μM, Sigma-Aldrich) was added for 2 h before harvesting cells. […] Stained cells were analyzed by MACSQuant (MACS). […] The percentage of Annexin V/PI- or BrdU-positive cells was quantified using Flow Jo software (Becton Dickinson). Where indicated, the combined activity of caspase-3/7 was determined using the caspase-Glo 3/7 Assay Kit (Promega) and normalized to the number of viable cells as determined by MTT assay.
# Ras/Raf/MEK/ERK pathway = assay: Immunoblot of ERK phosphorylation; format: cell-based, human; details: normal BJ cells, 24 h
# Description: as §1
# SNU1 = assay: MTT cytotoxicity test (GI50); format: cell-based; details: Homo sapiens; SNU1, cancer, gastric; MTT 72 h
smiles,measurement,setting,value
"N#C/C(=C\c1cccc2cnccc12)c1c[nH]c2ccccc12 [a131, (Z)-2-(1H-indol-3-yl)-3-(5-isoquinolyl)prop-2-enenitrile]",GI50,IM95,1000 nM
same,GI50,U2OS,1500 nM
same,induction of PIK3IP1 in Ras- and Raf-mutant cancer cells,PIK3IP1,significantly attenuated
same,ED score,[1],0.291
same,ΔTm at 100 µM,[1]; read-out: mean Delta Tm,2.17 °C
same,GI50,AZ521,2400 nM
same,DNA damage (γ-H2AX staining),normal BJ cells,did not do so
same,inhibition of the PI3K/Akt/mTOR pathway,PI3K/Akt/mTOR pathway,"consistently caused inhibition of the PI3K/Akt/mTOR pathway only in normal BJ cells, but not in transformed counterparts"
same,a131-induced cell death after 4-OHT-induced activation of H-RasV12-ER,[2],sufficient to sensitize normal BJ cells to a131-induced cell death
same,inhibition of the Ras/Raf/MEK/ERK pathway (ERK phosphorylation),Ras/Raf/MEK/ERK pathway,Neither a131 and a166 treatment nor PI5P4Ks knockdown inhibited
same,GI50,SNU1,900 nM
